Assay results taken from the supplement of paper PMC8837787.

Test system: Saccharomyces cerevisiae ABC16-Green Monster
Test: growth inhibition at single dose (up to 150 µM), below the 70% cut-off for dose-response; higher = more potent
Conditions: 18 h; 30 °C; YPD
In short: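 Percent growth inhibition is the reported value. Drug-sensitive S. cerevisiae ABC16-Green Monster cultures in log phase (OD600 0.1–0.2), 200 µl per well in 96-well plates, received each library compound once at 150 µM in biological duplicates, with untreated cultures run alongside. Growth was followed by OD600 at 0 h and after 18 h at 30 °C. Dose-response was not done for compounds below 70% in both replicates.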

Cc1cc(NC(=O)C(C)(C)C)sc1C(=O)Nc1ccccc1O
growth inhibition at single dose: < 70%

Cn1c(C(=O)c2cccc3ccccc23)nc2ccccc21
growth inhibition at single dose: < 70%

Cc1ccc(-n2c(C)cc(C(=O)COC(=O)c3ccc[nH]c3=O)c2C)cc1C
growth inhibition at single dose: < 70%

N#CC(C(=O)c1cc(S(=O)(=O)N2CCc3ccccc3C2)ccc1Cl)c1ccccn1 (centres undefined)
growth inhibition at single dose: < 70%

C=CCNC(=O)C(C)Sc1nnc(-c2ccc(C)cc2)c(-c2ccc(C)cc2)n1 (centres undefined)
growth inhibition at single dose: < 70%

Cc1cc(C)c2c(C)c(C(=O)Nc3nc4ccccc4s3)sc2n1
growth inhibition at single dose: < 70%

Cc1cccc2nc(C(=O)Nc3ccc4c(c3)nc3n4CCCCC3)cn12
growth inhibition at single dose: < 70%

Cc1ccc(NS(=O)(=O)c2ccc(C(=O)Nc3ncccc3O)cc2)cc1
growth inhibition at single dose: < 70%

Cc1ccc(NC(=O)CC2COc3ccccc3O2)cc1Cl (centres undefined)
growth inhibition at single dose: < 70%

Fc1ccc2[nH]c3c(NCCCN4CCOCC4)ncnc3c2c1
growth inhibition at single dose: < 70%

COc1ccc(C(=N)N)cc1-c1cn(-c2ccc(C(=N)N)cc2)nn1
growth inhibition at single dose: < 70%

CC(=O)Nc1cccc2c1CCN(c1ncnc3sccc13)C2
growth inhibition at single dose: < 70%

O=C(COc1ccc2[nH]c3ccccc3c(=O)c2c1)N1c2ccccc2OCC1c1ccccc1 (centres undefined)
growth inhibition at single dose: < 70%

CCOc1cc(Cl)c(C(C)NC(=O)c2cccc(OC)c2)cc1OCC (centres undefined)
growth inhibition at single dose: < 70%

CCOC(=O)c1c(NC(=O)c2ccccc2)sc2c(O)c(CN(CC)CC)ccc12
growth inhibition at single dose: < 70%

NCC(c1cccs1)S(=O)(=O)c1ccccc1 (centres undefined)
growth inhibition at single dose: < 70%

CCCCN1C(=O)C(=O)N(CC(=O)Nc2sc(Cc3ccc4c(c3)OCO4)c(C)c2C(=O)OCC)C1=O
growth inhibition at single dose: < 70%

CCOC(=O)c1cnc2ccc(OC)cc2c1Nc1ccc(N2CCN(C)CC2)cc1
growth inhibition at single dose: < 70%

CC(NCc1ccccc1)c1cc(Cl)ccc1O (centres undefined)
growth inhibition at single dose: < 70%

CCN(CC)CCCNc1nc(-c2ccc(Cl)cc2)nc2ccccc12
growth inhibition at single dose: < 70%

c1ccc2c(c1)CN(CC1CC1)CC1(CCN(Cc3c[nH]c4cnccc34)CC1)O2
growth inhibition at single dose: < 70%

NCC(=O)N1CCn2c(nc(-c3ccccc3)c2Nc2ccc3c(c2)OCO3)C1
growth inhibition at single dose: < 70%

CC(C)c1cc(C(=O)Nc2nnc3ccccn23)c2cnn(C(C)C)c2n1
growth inhibition at single dose: < 70%

Clc1ccc(CCNc2cc(-c3ccccc3)nc3ncnn23)cc1
growth inhibition at single dose: < 70%

Cc1ccc(Nc2nc(NCCO)c3ccccc3n2)cc1C
growth inhibition at single dose: < 70%

Cc1cc(O)nc(-n2nc(C)cc2C)n1
growth inhibition at single dose: < 70%

COc1ccc(Nc2cc(C)nc(NCc3ccccc3)n2)cc1
growth inhibition at single dose: < 70%

O=C(NCc1ccoc1)N1CCN(Cc2ccc3c(c2)OCO3)CC1
growth inhibition at single dose: < 70%

COCC(C)NC(=O)CSc1ncnc2sc(-c3ccccc3)cc12 (centres undefined)
growth inhibition at single dose: < 70%

Cc1ccnc(NC(=O)C2CC(=O)N(c3ccc(C)c(C)c3)C2)c1 (centres undefined)
growth inhibition at single dose: < 70%

FC(F)(F)c1cccc(CNC2CCN(CCc3ccccc3)CC2)c1
growth inhibition at single dose: < 70%

COc1ccc(F)cc1CN(Cc1ccc(C(=O)NC2CC2)cc1)Cc1ccco1
growth inhibition at single dose: < 70%

COc1cc(C(=O)Nc2ccc(-c3nc4ccccc4[nH]3)cc2)cc(OC)c1OC
growth inhibition at single dose: < 70%

CCOc1ccc(N2C(N)=NC(N)=NC2(C)C)cc1
growth inhibition at single dose: < 70%

c1coc(CNc2nc(N3CCCCC3)nc3ccccc23)c1
growth inhibition at single dose: < 70%

CCc1c(C)[nH]c2cc(-c3ccc(OC)cc3)nn2c1=O
growth inhibition at single dose: < 70%

O=C(Nc1ccc(N2CCCCC2)c(Cl)c1)c1ccc(Br)o1
growth inhibition at single dose: < 70%

CCc1ccc(C(=O)Nc2cccc(NC(=O)c3ccccc3C)c2)cc1
growth inhibition at single dose: < 70%

CCN(CC)CCCNc1ccnc2cc3ccccc3cc12
growth inhibition at single dose: < 70%

CN1CCN(c2c3c(c(C#N)c4nc5ccccc5n24)CCC3)CC1
growth inhibition at single dose: < 70%

O=S(=O)(c1ccc(Cl)c(N=C2NN=C(c3c[nH]c4ccccc34)CS2)c1)N1CCOCC1
growth inhibition at single dose: < 70%

CC1=Nc2ccc(Cl)cc2C(c2ccccc2)N1CCNC(=O)CN(C)C (centres undefined)
growth inhibition at single dose: < 70%

Cc1cc(Nc2ccc(Cl)cc2)n2nc(C(F)(F)F)nc2n1
growth inhibition at single dose: < 70%

COc1cc(SC)ccc1C(=O)N1CCCC(C)C1 (centres undefined)
growth inhibition at single dose: < 70%

FC(F)(F)c1cc(NCCc2ccccc2)nc(-c2ccccn2)n1
growth inhibition at single dose: < 70%

c1ccc(Oc2ccc(-c3cc(N4CCOCC4)[nH]n3)cc2)cc1
growth inhibition at single dose: < 70%

O=C(Nc1ccc(N2CCN(c3ncccc3C(F)(F)F)CC2)nc1)c1cccs1
growth inhibition at single dose: < 70%

CCCCCC(=O)N1c2ccccc2N=C2CC(c3ccc(OC)c(OC)c3)CC(O)=C2C1c1ccc(C(F)(F)F)cc1 (centres undefined)
growth inhibition at single dose: < 70%

OC1CCN(c2nn3cc(-c4ccccc4)nc3s2)CC1
growth inhibition at single dose: < 70%

Cc1[nH]c(-c2ccccn2)nc(=O)c1CC(=O)NC1CCCCCCC1
growth inhibition at single dose: < 70%

Clc1cccc(CO[C@H]2CCc3ccccc3[C@@H]2n2ccnn2)c1
growth inhibition at single dose: < 70%

N#Cc1ccsc1NC(=O)CN1CCN(CC(=O)Nc2ccc(Cl)c(C(F)(F)F)c2)CC1
growth inhibition at single dose: < 70%

Cc1ccc(Nc2nc(N)c3ccccc3n2)cc1Cl
growth inhibition at single dose: < 70%

COc1ccc([N+](=O)[O-])cc1C(=O)Nc1nc2c(s1)CCCCC2
growth inhibition at single dose: < 70%

Cc1ccc(NC(=O)c2cc(C(C)(C)C)n(-c3ccccc3)c2C)cc1
growth inhibition at single dose: < 70%

O=C(Nc1ccc(N2CCCC2)cn1)c1cccc(F)c1
growth inhibition at single dose: < 70%

CS(=O)(=O)c1cccc(-c2cnc3[nH]cc(-c4ccc(CCC(=O)O)cc4)c3c2)c1
growth inhibition at single dose: < 70%

COc1ccccc1CNC(=O)c1cc(C2CC2)nc2c1cnn2C(C)C
growth inhibition at single dose: < 70%

Cc1ccc(-c2cc(C(=O)Nc3cccnc3)c3cc(Br)ccc3n2)cc1
growth inhibition at single dose: < 70%

CN(C)c1ccc(C=Cc2nc(=O)c3ccccc3o2)cc1
growth inhibition at single dose: < 70%

Fc1ccccc1-n1cnnc1SC(c1ccccc1)c1ccccc1
growth inhibition at single dose: < 70%

N#Cc1ccc(NC(=O)Cn2ncc(Cl)c(Cl)c2=O)cc1
growth inhibition at single dose: < 70%

O=C(NC1CCCCC1)C(c1cccs1)N(CCc1ccccc1)C(=O)c1ccco1 (centres undefined)
growth inhibition at single dose: < 70%

CCCCn1nc(C)c(C(=O)Nc2nc3ccccc3[nH]2)c1Cl
growth inhibition at single dose: < 70%

COCCNC(=O)c1nn(CCC(C)C)c2c1CN(C(=O)c1cc(C)n[nH]1)CC2
growth inhibition at single dose: < 70%

c1ccc(Oc2ccc(-c3cc(N4CCNCC4)[nH]n3)cc2)cc1
growth inhibition at single dose: < 70%

CN1CCN(CCCOc2ncc(Nc3ncc(-c4ccc(C(F)(F)F)c(F)c4)nc3C(N)=O)cn2)CC1
growth inhibition at single dose: < 70%

c1ccc2c(c1)[nH]c1nc(SCc3cn4ccsc4n3)nnc12
growth inhibition at single dose: < 70%

COc1ccc(-c2cnc3cnc(-c4cccc(OC(C)C)c4)cn23)cc1
growth inhibition at single dose: < 70%

Cc1ccc2nc(Cl)c(CNCc3cccs3)cc2c1
growth inhibition at single dose: < 70%

Cc1cc(NC(=O)c2cccc(S(=O)(=O)N3c4ccccc4CC3C)c2)no1 (centres undefined)
growth inhibition at single dose: < 70%

Brc1c(-c2ccc3c(c2)OCO3)nc2ncccn12
growth inhibition at single dose: < 70%

Cc1ccc(OCCNC(=O)c2[nH]c3c(c2C)C(=O)CCC3)c(C)c1
growth inhibition at single dose: < 70%

CC(C)(C)C(=O)N(CCCCCCN1C[C@H](O)[C@@H](O)[C@H](O)[C@H]1CO)C1CCCCCC1
growth inhibition at single dose: < 70%

Cc1ccccc1C(=O)OCC(=O)c1cc(C)n(Cc2ccco2)c1C
growth inhibition at single dose: < 70%

CC(=O)c1sc(NC(=O)Nc2ccc(C)cc2C)nc1C
growth inhibition at single dose: < 70%

O=C(CN1C(=O)CCOc2ccccc21)N1CCN(C(=O)C2COc3ccccc3O2)CC1 (centres undefined)
growth inhibition at single dose: < 70%

CNc1nc(-c2[nH]c(C)c(C(=O)OC)c2C)cs1
growth inhibition at single dose: < 70%

CN1C=C(c2ccc3ccccc3n2)C(c2c[nH]c3ccccc23)c2ccccc21 (centres undefined)
growth inhibition at single dose: < 70%

COc1ccc(C2Sc3ccccc3N=C3C2=C(O)c2ccccc23)cc1 (centres undefined)
growth inhibition at single dose: < 70%

CCOc1cc2c(cc1CNC(=O)c1cnc3cc(C)nn3c1C)OC(C)C2 (centres undefined)
growth inhibition at single dose: < 70%

Cc1nn(Cc2ccccc2)c2sc(C(=O)Nc3nc4ccccc4[nH]3)cc12
growth inhibition at single dose: < 70%

Cc1nn(-c2ccc(F)cc2)c(Cl)c1/C=C1\C(=O)Nc2ccccc21
growth inhibition at single dose: < 70%

Cc1ccc2c(CSc3nc(N)c(C#N)cc3C#N)cc(=O)oc2c1C
growth inhibition at single dose: < 70%

CCN(CC)CCNc1ccnc2cc(Cl)ccc12
growth inhibition at single dose: < 70%

C/N=c1\scc(-c2ccc(OC(F)F)cc2)n1/N=C/c1ccccc1Br
growth inhibition at single dose: < 70%

O=C(Nc1ccc(CNc2ncnc3cc(Cl)ccc23)cc1)C1CC1
growth inhibition at single dose: < 70%

CC(=O)N1CCc2cc3nc(C)cc(C)c3cc21
growth inhibition at single dose: < 70%

COc1ccc(C(=O)C(CCC(CNC(C)(C)C)C(=O)c2ccc(OC)cc2)CNC(C)(C)C)cc1 (centres undefined)
growth inhibition at single dose: < 70%

O=S(=O)(c1ccc(Cl)cc1)N1CCN(C(=S)NCc2ccco2)CC1
growth inhibition at single dose: < 70%

CC(Oc1cccc(Cl)c1)C(=O)Nc1ccc2oc(-c3ccncc3)nc2c1 (centres undefined)
growth inhibition at single dose: < 70%

CCOc1ccc(-c2nc(NC(=O)c3cccc(S(C)(=O)=O)c3)sc2C)cc1
growth inhibition at single dose: < 70%

O=c1cc(CN2CCCCCC2)nc2sccn12
growth inhibition at single dose: < 70%

COC(=O)CCSc1c2ccc(Cl)cc2nc2ccc(OC)cc12
growth inhibition at single dose: < 70%
